Test [1] concerns the target Tyrosine-protein kinase JAK1 (Mus musculus, UniProt P52332). Description: Inhibition of FLAG-tagged mouse JAK1 expressed in insect Sf9 cells using biotin-EQEDEPEGDYFEWLE-NH2 as substrate.
Test [2] deals with T1, Tyrosine-protein kinase JAK3 (Homo sapiens, UniProt P52333).
T1 sequence (P52333 whole entry): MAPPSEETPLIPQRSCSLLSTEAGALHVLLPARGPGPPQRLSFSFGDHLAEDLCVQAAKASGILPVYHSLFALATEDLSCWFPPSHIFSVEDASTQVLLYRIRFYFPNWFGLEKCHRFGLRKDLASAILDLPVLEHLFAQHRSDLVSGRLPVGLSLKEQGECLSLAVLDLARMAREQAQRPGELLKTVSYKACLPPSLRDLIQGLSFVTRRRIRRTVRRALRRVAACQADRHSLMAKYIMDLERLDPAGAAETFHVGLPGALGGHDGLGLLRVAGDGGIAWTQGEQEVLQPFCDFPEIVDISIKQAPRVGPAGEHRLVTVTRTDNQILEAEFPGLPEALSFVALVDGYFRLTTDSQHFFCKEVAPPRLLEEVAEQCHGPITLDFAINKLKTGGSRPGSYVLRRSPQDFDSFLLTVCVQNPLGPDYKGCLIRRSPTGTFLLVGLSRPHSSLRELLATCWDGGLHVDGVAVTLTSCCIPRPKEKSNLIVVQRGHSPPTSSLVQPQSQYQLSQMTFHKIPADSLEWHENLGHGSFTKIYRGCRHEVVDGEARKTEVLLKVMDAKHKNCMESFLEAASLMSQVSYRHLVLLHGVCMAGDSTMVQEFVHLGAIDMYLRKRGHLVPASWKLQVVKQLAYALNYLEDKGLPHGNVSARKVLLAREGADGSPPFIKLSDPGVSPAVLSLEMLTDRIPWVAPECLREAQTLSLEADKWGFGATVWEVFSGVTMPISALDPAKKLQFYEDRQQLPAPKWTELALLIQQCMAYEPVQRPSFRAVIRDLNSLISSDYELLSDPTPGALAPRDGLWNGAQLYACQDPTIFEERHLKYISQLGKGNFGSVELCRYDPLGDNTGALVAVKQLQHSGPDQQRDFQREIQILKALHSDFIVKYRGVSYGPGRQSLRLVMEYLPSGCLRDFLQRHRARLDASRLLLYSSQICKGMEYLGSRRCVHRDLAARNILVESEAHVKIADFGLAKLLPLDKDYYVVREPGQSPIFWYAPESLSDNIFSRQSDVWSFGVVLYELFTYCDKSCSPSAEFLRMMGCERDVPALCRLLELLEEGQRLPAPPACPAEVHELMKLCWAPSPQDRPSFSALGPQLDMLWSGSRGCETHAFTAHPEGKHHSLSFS
Description: Inhibition of JAK3 (unknown origin) using tyrosine 6 peptide as substrate by z'-lyte assay.

Test [3] has as its target Tyrosine-protein kinase JAK1 (Homo sapiens, UniProt P23458). Description: Inhibition of JAK1 (unknown origin) using tyrosine 6 peptide as substrate by z'-lyte assay.
In test [4] the target is Non-receptor tyrosine-protein kinase TYK2 (Homo sapiens, UniProt P29597). In words: Inhibition of TYK2 (unknown origin) using tyrosine 3 peptide as substrate by z'-lyte assay.
Test [5] deals with Tyrosine-protein kinase JAK2 (Homo sapiens, UniProt O60674). In words: Inhibition of JAK2 (unknown origin) using tyrosine 6 peptide as substrate by z'-lyte assay.
Tyrosine-protein kinase JAK2, sequence (O60674 whole entry): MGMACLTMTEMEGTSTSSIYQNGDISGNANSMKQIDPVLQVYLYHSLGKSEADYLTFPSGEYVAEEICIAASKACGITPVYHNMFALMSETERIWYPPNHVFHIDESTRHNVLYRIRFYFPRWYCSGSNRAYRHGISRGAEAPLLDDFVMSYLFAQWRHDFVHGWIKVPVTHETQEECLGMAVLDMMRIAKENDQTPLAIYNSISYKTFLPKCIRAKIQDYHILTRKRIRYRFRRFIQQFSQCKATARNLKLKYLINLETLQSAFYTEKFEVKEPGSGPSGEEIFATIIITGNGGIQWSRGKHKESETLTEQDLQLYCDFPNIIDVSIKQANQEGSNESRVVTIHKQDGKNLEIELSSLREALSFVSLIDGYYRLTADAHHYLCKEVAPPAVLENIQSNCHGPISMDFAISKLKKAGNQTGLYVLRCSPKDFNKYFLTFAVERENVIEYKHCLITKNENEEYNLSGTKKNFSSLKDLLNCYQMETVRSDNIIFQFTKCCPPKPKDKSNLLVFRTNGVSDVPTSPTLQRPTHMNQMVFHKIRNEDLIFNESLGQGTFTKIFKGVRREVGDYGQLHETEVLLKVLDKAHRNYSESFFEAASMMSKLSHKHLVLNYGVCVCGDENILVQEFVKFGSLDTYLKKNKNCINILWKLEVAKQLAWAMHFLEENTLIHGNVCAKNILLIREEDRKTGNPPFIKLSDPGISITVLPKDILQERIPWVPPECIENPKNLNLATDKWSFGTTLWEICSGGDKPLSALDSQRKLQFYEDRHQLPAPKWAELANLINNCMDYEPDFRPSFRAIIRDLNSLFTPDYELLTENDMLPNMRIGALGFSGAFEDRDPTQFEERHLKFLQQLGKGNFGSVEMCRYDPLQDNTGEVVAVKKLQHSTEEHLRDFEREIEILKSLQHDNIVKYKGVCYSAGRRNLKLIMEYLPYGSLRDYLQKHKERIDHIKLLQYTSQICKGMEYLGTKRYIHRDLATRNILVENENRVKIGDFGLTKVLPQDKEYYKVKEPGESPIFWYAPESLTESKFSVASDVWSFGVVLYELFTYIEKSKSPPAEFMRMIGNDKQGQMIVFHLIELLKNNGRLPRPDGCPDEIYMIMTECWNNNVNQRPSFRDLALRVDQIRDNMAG

Tyrosine-protein kinase JAK1 (Homo sapiens, UniProt P23458), sequence (P23458 whole entry): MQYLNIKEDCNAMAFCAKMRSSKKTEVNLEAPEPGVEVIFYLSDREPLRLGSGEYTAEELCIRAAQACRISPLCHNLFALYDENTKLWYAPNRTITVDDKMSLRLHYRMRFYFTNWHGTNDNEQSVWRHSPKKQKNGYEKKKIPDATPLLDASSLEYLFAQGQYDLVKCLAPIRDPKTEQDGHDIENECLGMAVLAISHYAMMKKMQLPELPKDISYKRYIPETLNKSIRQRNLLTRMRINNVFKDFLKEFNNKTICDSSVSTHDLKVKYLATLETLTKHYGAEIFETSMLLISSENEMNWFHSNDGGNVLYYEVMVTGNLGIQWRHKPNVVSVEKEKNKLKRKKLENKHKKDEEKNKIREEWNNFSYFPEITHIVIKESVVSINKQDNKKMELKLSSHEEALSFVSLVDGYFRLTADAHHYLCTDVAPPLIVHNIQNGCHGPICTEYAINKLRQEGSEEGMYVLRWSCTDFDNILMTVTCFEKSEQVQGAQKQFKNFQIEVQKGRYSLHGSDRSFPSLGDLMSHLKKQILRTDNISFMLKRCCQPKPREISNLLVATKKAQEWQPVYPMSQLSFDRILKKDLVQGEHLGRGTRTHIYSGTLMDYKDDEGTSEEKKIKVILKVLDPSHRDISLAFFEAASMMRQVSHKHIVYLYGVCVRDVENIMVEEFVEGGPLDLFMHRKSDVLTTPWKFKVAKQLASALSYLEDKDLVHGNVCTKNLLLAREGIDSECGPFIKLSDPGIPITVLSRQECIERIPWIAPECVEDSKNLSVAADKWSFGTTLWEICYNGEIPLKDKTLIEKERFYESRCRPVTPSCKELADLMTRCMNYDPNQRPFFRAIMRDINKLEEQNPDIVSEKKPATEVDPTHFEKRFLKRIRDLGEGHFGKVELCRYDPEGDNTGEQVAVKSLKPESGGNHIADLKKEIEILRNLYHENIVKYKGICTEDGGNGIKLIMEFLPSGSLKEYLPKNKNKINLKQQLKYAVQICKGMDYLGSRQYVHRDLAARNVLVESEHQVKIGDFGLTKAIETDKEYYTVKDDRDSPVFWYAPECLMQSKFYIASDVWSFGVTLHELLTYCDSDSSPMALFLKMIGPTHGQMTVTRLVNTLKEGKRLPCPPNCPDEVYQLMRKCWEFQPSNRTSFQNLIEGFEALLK
Non-receptor tyrosine-protein kinase TYK2, sequence (P29597 whole entry): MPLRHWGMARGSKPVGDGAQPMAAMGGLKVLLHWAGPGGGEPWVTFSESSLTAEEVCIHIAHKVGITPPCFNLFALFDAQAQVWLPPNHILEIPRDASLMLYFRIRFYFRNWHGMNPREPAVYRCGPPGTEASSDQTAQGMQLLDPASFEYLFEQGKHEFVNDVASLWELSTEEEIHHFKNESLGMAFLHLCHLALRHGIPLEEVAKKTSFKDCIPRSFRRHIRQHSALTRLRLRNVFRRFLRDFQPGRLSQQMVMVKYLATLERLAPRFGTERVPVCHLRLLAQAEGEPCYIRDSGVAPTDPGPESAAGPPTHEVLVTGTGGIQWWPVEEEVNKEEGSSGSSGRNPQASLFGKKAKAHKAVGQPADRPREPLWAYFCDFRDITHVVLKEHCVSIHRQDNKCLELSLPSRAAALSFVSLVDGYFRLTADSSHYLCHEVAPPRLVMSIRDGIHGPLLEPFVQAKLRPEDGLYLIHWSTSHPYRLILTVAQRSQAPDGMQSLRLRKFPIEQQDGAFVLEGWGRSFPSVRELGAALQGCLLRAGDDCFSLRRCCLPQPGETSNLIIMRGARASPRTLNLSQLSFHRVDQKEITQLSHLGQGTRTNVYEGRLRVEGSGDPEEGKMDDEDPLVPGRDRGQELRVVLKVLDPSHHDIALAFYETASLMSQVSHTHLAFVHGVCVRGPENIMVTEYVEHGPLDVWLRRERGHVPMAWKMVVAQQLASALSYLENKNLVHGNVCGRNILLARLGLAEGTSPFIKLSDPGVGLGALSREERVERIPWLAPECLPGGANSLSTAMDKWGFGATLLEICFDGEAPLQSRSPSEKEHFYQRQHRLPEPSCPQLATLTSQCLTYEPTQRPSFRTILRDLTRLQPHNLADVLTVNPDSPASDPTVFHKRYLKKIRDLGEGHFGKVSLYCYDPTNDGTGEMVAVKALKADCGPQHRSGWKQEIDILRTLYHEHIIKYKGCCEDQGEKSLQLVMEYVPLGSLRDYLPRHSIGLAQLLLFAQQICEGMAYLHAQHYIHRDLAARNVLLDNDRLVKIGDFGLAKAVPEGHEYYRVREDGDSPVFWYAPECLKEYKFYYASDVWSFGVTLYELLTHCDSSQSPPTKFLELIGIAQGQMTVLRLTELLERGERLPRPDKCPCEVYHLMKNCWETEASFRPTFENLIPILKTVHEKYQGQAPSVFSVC
Tyrosine-protein kinase JAK1 (Mus musculus, UniProt P52332), sequence (P52332 whole entry): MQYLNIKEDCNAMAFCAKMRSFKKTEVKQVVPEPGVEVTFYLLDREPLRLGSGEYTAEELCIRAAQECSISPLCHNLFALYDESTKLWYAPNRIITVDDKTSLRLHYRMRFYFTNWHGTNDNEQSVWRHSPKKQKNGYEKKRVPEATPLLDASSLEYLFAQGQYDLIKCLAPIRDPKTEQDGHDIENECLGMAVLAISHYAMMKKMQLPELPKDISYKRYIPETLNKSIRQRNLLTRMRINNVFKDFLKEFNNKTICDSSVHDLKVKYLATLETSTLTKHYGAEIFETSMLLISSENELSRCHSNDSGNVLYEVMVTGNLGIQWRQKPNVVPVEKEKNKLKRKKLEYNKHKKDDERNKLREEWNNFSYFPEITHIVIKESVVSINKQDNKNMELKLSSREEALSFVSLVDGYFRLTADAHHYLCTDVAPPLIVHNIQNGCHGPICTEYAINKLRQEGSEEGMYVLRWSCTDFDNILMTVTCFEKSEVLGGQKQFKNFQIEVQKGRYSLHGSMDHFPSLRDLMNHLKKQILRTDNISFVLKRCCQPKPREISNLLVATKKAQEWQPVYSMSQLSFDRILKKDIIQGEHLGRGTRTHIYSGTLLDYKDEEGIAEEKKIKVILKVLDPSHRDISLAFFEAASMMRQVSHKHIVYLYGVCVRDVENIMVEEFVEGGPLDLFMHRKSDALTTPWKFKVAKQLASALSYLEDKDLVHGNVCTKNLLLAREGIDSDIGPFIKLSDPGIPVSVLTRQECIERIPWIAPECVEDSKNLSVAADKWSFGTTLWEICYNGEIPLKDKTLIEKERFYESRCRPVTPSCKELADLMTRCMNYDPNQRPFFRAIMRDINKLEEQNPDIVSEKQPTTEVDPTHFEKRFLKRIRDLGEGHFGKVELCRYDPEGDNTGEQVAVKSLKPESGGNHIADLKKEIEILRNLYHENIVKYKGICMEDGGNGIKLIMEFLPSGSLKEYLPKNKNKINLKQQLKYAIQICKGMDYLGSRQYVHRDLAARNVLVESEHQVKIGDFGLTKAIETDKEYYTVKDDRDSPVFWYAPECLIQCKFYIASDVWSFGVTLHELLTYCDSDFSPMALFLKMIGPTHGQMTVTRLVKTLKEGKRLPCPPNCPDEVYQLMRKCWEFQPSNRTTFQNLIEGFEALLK

`NCCn1c(C2CCNCC2)nc2cc(C(N)=O)ccc21` displayed an IC50 in test [1] of 0.05 µM. This lies in the double-digit nanomolar range.
Turning to `NCCCn1c2ccc(C(N)=O)cc2nc1[C@H]1CC[C@H](O)CC1`, the IC50 in test [2] was 12.4 µM; in test [3] it was 5.3 µM; in test [4], 30.7 µM.
For the molecule `NCCCn1c(C2CCNCC2)nc2cc(C(N)=O)ccc21`, the IC50 came out at 14.3 µM in test [2], 5.4 µM in test [3] and 31 µM in test [4].
Regarding `NC(=O)c1ccc2c(c1)nc([C@H]1CC[C@H](O)CC1)n2CCO`, the IC50 in test [2] turned out to be 1.8 µM; in test [5], 3.2 µM; in test [3], 0.08 µM; in test [4] it was 4.3 µM.
Consider `C[C@@H](O)Cn1c2ccc(C(N)=O)cc2nc1[C@H]1CC[C@H](O)CC1`, for which the IC50 in test [2] was found to be 8.5 µM; in test [5] it was 12.1 µM; in test [3], 2 µM; in test [4], 25.7 µM.
Consider `CNCCn1c(C2CCNCC2)nc2cc(C(N)=O)ccc21`, for which the IC50 was 1.5 µM in test [2], 3.1 µM in test [5], 0.09 µM in test [3] and 4.1 µM in test [4].
In the same order, the values of `NC(=O)c1ccc2c(c1)nc([C@H]1CC[C@H](O)CC1)n2CCCO` are 20.6 µM, 29.7 µM, 7 µM and 42.2 µM.
On to `CNCCn1c2ccc(C(N)=O)cc2nc1[C@H]1CC[C@H](O)CC1`, for which the IC50 in test [2] was 1.9 µM; in test [5], 3.9 µM; in test [3] it was 0.15 µM; in test [4], 5.6 µM.

By IC50 is commonly meant the midpoint of a concentration-inhibition curve.

(Values after ChEMBL document CHEMBL3813615, “Novel JAK1-selective benzimidazole inhibitors with enhanced membrane permeability” (Bioorg Med Chem Lett, 2016).)
